Reference: paper PMC7707621, “Oxidized Juncuenin B Analogues with Increased Antiproliferative Activity on Human Adherent Cell Lines: Semisynthesis and Biological Evaluation” (Journal of Natural Products, 2020)

Experiments:
[1] = test system: MCF-7 cells; assay: MTT antiproliferative assay on MCF-7; format: cell-based, human; conditions: for inhibition at 10 µM / IC50 / inhibition at 30 µM: Homo sapiens; for inhibition at 10 µM: MCF7, 10 μM; for inhibition at 10 µM / inhibition at 30 µM: read-out: Growth inhibition (% ± SEM), MCF-7; for IC50: MCF7, MTT, 0.1–30 μM, 72 h, mean ± SEM, read-out: calculated IC50 values, MCF-7; for inhibition at 30 µM: MCF7, 30 μM
Experimental: (§1) The antiproliferative assays of the products were carried out by a standard MTT method on human breast (MCF-7, T47D), cervical (HeLa, SiHa, C33A), and ovarian (A2780) cancer cells, and NIH/3T3 mouse embryonic fibroblast cell lines. In the first step, the diastereomeric and racemic mixtures 1–11 and the starting compound, juncuenin B, were tested to obtain information about their antiproliferative activity.
(§2) The antiproliferative activity and tumor selectivity of the compounds were measured by standard MTT assays. Tumor cell lines MCF-7, T47D, HeLa, A2780, and noncancerous NIH/3T3 were provided by European Collection of Authenticated Cell Cultures (ECACC, Salisbury, UK); cell lines SiHa and C33A by LGC Standards GmbH (Wesel, Germany). All chemicals and materials used for the antiproliferative assays were purchased from Sigma Aldrich Ltd. (Budapest, Hungary).
(§3) Growth-inhibition properties of racemates and pure enantiomer compounds were determined by standard MTT assays on six human malignant gynecological cell lines (MCF-7, T47D, HeLa, SiHa, C33A, A2780). To investigate tumor selectivity, the MTT assay was repeated on mouse embryonic fibroblast cells (NIH/3T3) under the same conditions. All cell lines were maintained in minimal essential medium (MEM) supplemented with 10% fetal bovine serum, 1% nonessential amino acids, and 1% penicillin–streptomycin–amphotericin B mixture, and were stored in humidified air containing 5% CO2 at 37 °C. All cell types were seeded into 96–well plates at a density of 5000 with the exception of C33a, which was seeded at a density of 10 000 and treated by increasing concentrations (0.1–30 μM) of the compounds for 72 h under cell culturing conditions. After the incubation, 5 mg/mL MTT [3-(4,5-dimethylthiazol-2-yl)-2,5-diphenyltetrazolium bromide] solution was added to samples for 4 h and precipitated blue formazan crystals were dissolved in DMSO. Absorbance values of the samples were measured at 545 nm using a microplate reader (Stat Fax-2100, Awareness Technologies Inc., Palm City, FL, USA) and untreated cells were used as control. Normalized sigmoidal dose–response curves were fitted to the determined data and the IC50 values were calculated by GraphPad Prism 5.01 (GraphPad Software, San Diego, CA, USA). Cisplatin (Ebewe Pharma GmbH, Unterach, Austria) was used as a reference agent in the same concentration range.

[2] = test system: T47D cells; assay: MTT antiproliferative assay on T47D; format: cell-based, human; conditions: for inhibition at 10 µM / IC50 / inhibition at 30 µM: Homo sapiens, T47D; for inhibition at 10 µM / inhibition at 30 µM: read-out: Growth inhibition (% ± SEM), T47d; for IC50: MTT, 0.1–30 μM, 72 h, mean ± SEM, read-out: calculated IC50 values, T47D
Experimental: as §1, §2, §3

[3] = test system: HeLa cells; assay: MTT antiproliferative assay on HeLa; format: cell-based, human; conditions: for inhibition at 10 µM / IC50 / inhibition at 30 µM: Homo sapiens, HeLa; for inhibition at 10 µM / inhibition at 30 µM: read-out: Growth inhibition (% ± SEM), HeLa; for IC50: MTT, 0.1–30 μM, 72 h, mean ± SEM, read-out: calculated IC50 values, HeLa
Experimental: as §1, §2, §3

[4] = test system: SiHa cells; assay: MTT antiproliferative assay on SiHa; format: cell-based, human; conditions: for inhibition at 10 µM / IC50 / inhibition at 30 µM: Homo sapiens, SiHa; for inhibition at 10 µM / inhibition at 30 µM: read-out: Growth inhibition (% ± SEM), SiHa; for IC50: MTT, 0.1–30 μM, 72 h, mean ± SEM, read-out: calculated IC50 values, SiHa
Experimental: as §1, §2, §3

[5] = test system: C33A cells; assay: MTT antiproliferative assay on C33A; format: cell-based, human; conditions: for IC50 / inhibition at 10 µM / inhibition at 30 µM: Homo sapiens, C-33-A; for IC50: MTT, 0.1–30 μM, 72 h, mean ± SEM, read-out: calculated IC50 values, C33A; for inhibition at 10 µM / inhibition at 30 µM: read-out: Growth inhibition (% ± SEM), C33a
Experimental: as §1, §2, §3

[6] = test system: A2780 cells; assay: MTT antiproliferative assay on A2780; format: cell-based, human; conditions: for IC50 / inhibition at 10 µM / inhibition at 30 µM: Homo sapiens; for IC50: A2780, MTT, 0.1–30 μM, 72 h, mean ± SEM, read-out: calculated IC50 values, A2780; for inhibition at 10 µM: A2780, 10 μM; for inhibition at 10 µM / inhibition at 30 µM: read-out: Growth inhibition (% ± SEM), A2780; for inhibition at 30 µM: A2780, 30 μM
Experimental: as §1, §2, §3

[7] = test system: NIH/3T3 mouse embryonic fibroblast cells; assay: MTT assay for tumor selectivity on NIH/3T3; format: cell-based; conditions: for IC50 / inhibition at 10 µM / inhibition at 30 µM: Mus musculus, NIH3T3; for IC50: 0.1–30 μM, 72 h, mean ± SEM, read-out: calculated IC50 values, NIH/3T3; for inhibition at 10 µM / inhibition at 30 µM: read-out: Growth inhibition (% ± SEM), NIH
Experimental: as §1, §2, §3

IC50 [1] [µM] | IC50 [2] [µM] | IC50 [3] [µM] | IC50 [6] [µM] | Structure (SMILES) | inhibition at 10 µM [1] [%] | inhibition at 10 µM ([2]; 10 μM) [%] | inhibition at 10 µM ([3]; 10 μM) [%] | inhibition at 10 µM ([4]; 10 μM) [%] | IC50 [4] [µM] | IC50 ([7]; MTT) [µM] | inhibition at 30 µM [1] [%] | inhibition at 30 µM ([2]; 30 μM) [%] | inhibition at 30 µM ([3]; 30 μM) [%] | inhibition at 30 µM ([4]; 30 μM) [%] | inhibition at 10 µM ([5]; 10 μM) [%] | inhibition at 30 µM ([5]; 30 μM) [%] | inhibition at 10 µM [6] [%] | inhibition at 30 µM [6] [%] | inhibition at 10 µM [7] [%] | inhibition at 30 µM [7] [%] | other results
> 30 | 22.9 ± 1.6 | 25.9 ± 0.3 | 11.2 ± 0.3 | C=CC1=C(C)C(=O)C=C2C3=C(CCC21OCC)C(C)(OCC)C(=O)C=C3 (single isomer, unassigned) [Compound 6a] | 19.6 ± 1.7 | < 10 | < 10 | < 10 | 29.7 ± 0.2 | 24.5 ± 1.9 |  |  |  |  |  |  |  |  |  |  | Growth inhibition (% ± SEM), MCF-7 ([1]; 30 μM): 45.64±0.26%; Growth inhibition (% ± SEM), T47d ([2]; 30 μM): 63.48±0.80%; Growth inhibition (% ± SEM), HeLa ([3]; 30 μM): 67.85±1.23%; Growth inhibition (% ± SEM), SiHa ([4]; 30 μM): 68.74±1.56%; Growth inhibition (% ± SEM), C33a ([5]; 10 μM): 21.08±1.92%; Growth inhibition (% ± SEM), C33a ([5]; 30 μM): 93.17±0.50%; IC50 [5]: 14.1 ± 0.2 µM; Growth inhibition (% ± SEM), A2780 ([6]; 10 μM): 43.71±2.91%; Growth inhibition (% ± SEM), A2780 ([6]; 30 μM): 93.85±0.75%
 |  |  |  | C=CC1=C(C)C(=O)C=C2C3=C(CCC21OCC)C(C)(OCC)C(=O)C=C3 (single isomer, unassigned) [Compound 6b] |  |  |  |  |  |  |  |  |  |  |  |  |  |  |  |  | Growth inhibition (% ± SEM), MCF-7 ([1]; 10 μM): 14.17±2.25%; Growth inhibition (% ± SEM), MCF-7 ([1]; 30 μM): 21.81±2.36%; Growth inhibition (% ± SEM), T47d ([2]; 10 μM): < 10%; Growth inhibition (% ± SEM), T47d ([2]; 30 μM): < 10%; Growth inhibition (% ± SEM), HeLa ([3]; 10 μM): < 10%; Growth inhibition (% ± SEM), HeLa ([3]; 30 μM): < 10%; Growth inhibition (% ± SEM), SiHa ([4]; 10 μM): < 10%; Growth inhibition (% ± SEM), SiHa ([4]; 30 μM): < 10%; Growth inhibition (% ± SEM), C33a ([5]; 10 μM): < 10%; Growth inhibition (% ± SEM), C33a ([5]; 30 μM): < 10%; Growth inhibition (% ± SEM), A2780 ([6]; 10 μM): < 10%; Growth inhibition (% ± SEM), A2780 ([6]; 30 μM): < 10%
11.6 |  |  |  | C=CC1=C(C)C(=O)C=C2C3=C(CCC21OC)C(C)(OC)C(=O)C=C3 (centres unmarked) [1a–1d, 2,6-dioxo-1,8a-dimethoxy-1,7-dimethyl-8-vinyl-9,10-dihydrophenanthrenes] | 28.7 ± 1.81 | 14.6 ± 4.44 | 12.7 ± 1.94 | 18.1 ± 3.53 | 20 | 17.7 ± 0.7 | 67.1 ± 1.9 | 76 ± 2.1 | 86.7 ± 1.22 | 77.9 ± 0.78 | 74.3 ± 0.8 | 94.97 ± 0.12 | 67.1 ± 1.37 | 94.93 ± 0.94 |  |  | 
> 30 | > 30 | > 30 | 13.3 ± 1.5 | C=CC1=C(C)C(=O)C=C2C3=C(CC[C@@]21OC)[C@@](C)(OC)C(=O)C=C3 [Compound 1a, 2,6-dioxo-1,8a-dimethoxy-1,7-dimethyl-8-vinyl-9,10-dihydrophenanthrenes] | < 10 | 14.1 ± 1.87 | < 10 | < 10 | > 30 | > 30 | 33.1 ± 1.15 | 32.5 ± 1.96 | 47.8 ± 3.28 | < 10 | 19.5 ± 2.08 | 87.97 ± 0.34 | 25.1 ± 1.6 | 87.7 ± 1.1 | < 10 | 32.1 ± 1.88 | 
> 30 | > 30 | > 30 | 9 ± 1 | C=CC1=C(C)C(=O)C=C2C3=C(CC[C@]21OC)[C@@](C)(OC)C(=O)C=C3 [Compound 1b, 2,6-dioxo-1,8a-dimethoxy-1,7-dimethyl-8-vinyl-9,10-dihydrophenanthrenes] | 14.2 ± 3.54 | 13.6 ± 1.33 | 16.3 ± 2.68 | < 10 | > 30 |  | 31.9 ± 1.28 | 43.8 ± 1.31 | 42.6 ± 2.07 | 27.7 ± 1.96 | 46 ± 2.01 | 95.12 ± 0.44 | 52.2 ± 1.02 | 96.61 ± 0.23 | < 10 | 41.9 ± 1.35 | IC50 [5]: 10.2 ± 1.7 µM
> 30 | 12.5 ± 0.9 | > 30 |  | C=CC1=C(C)C(=O)C=C2C3=C(CC[C@@]21OC)[C@](C)(OC)C(=O)C=C3 [Compound 1c, 2,6-dioxo-1,8a-dimethoxy-1,7-dimethyl-8-vinyl-9,10-dihydrophenanthrenes] | 10.2 ± 4.97 | 36.4 ± 2.76 | 28.3 ± 1.66 | < 10 | 28.1 ± 0.1 |  | 28.1 ± 1.14 | 84.5 ± 1.63 | 36.1 ± 0.87 | 57.5 ± 2.33 | 85.7 ± 1.16 | 96.31 ± 0.17 | 68.5 ± 0.75 | 98.88 ± 0.1 | < 10 | 69.4 ± 1.87 | 
> 30 | > 30 | > 30 | 11 ± 0.4 | C=CC1=C(C)C(=O)C=C2C3=C(CC[C@]21OC)[C@](C)(OC)C(=O)C=C3 [Compound 1d, 2,6-dioxo-1,8a-dimethoxy-1,7-dimethyl-8-vinyl-9,10-dihydrophenanthrenes] | < 10 | < 10 | 11.4 ± 2.71 | < 10 | > 30 | > 30 | 34.6 ± 1.38 | 41.8 ± 1.15 | 25.1 ± 3.84 | 11.6 ± 2.33 | 22.1 ± 1.44 | 89.4 ± 1 | 45.1 ± 2.08 | 92.39 ± 0.36 | < 10 | 30.7 ± 2.04 | IC50 [5]: 13 ± 0.2 µM
 | > 30 |  |  | C=CC1=C(C)C(=O)C=C2c3ccc(O)c(C)c3CC[C@@]21OC [Compound 4a] | 61.5 ± 1.87 | 37 ± 1.07 | 88.1 ± 0.89 | < 10 | > 30 |  | 58.5 ± 0.86 | 48.1 ± 1.47 | 62.3 ± 2 | 26.3 ± 1.36 | 58.41 ± 0.31 | 66.6 ± 0.74 | 44.5 ± 2.01 | 73.18 ± 0.4 | 19.2 ± 1.41 | 51.7 ± 1.68 | 
20.6 ± 0.3 |  |  |  | C=CC1=C(C)C(=O)C=C2c3ccc(O)c(C)c3CC[C@@]21OCC [Compound 7a, 8a-ethoxy-1,7-dimethyl-6-oxo-8-vinyl-9,10-dihydrophenanthrene-2-ols] | 41.7 ± 1.37 | 57.4 ± 2.46 | 71.1 ± 1.57 | 17 ± 1.88 | > 30 |  | 54.5 ± 1.33 | 57 ± 1.24 | 86.1 ± 1.29 | < 10 | 73.18 ± 0.61 | 86.42 ± 0.5 | 82.1 ± 0.54 | 84.75 ± 0.4 | 23.3 ± 1.48 | 33.8 ± 1.74 | activity against nontumoral NIH/3T3 cells (in words) ([7]; MTT): inactive
